# Like-named read-outs stand apart in the source and are kept apart here.
# Columns and labels:
# SYK [1] = target: T1, SYK (Homo sapiens (Human), UniProt P43405); experiment: KinomeScan; type: binding; settings: 1 uM
# DYRK2 = DYRK2 (Homo sapiens (Human), UniProt Q92630); experiment: Dundee profiling
# NEK2a = NEK2a (Homo sapiens (Human), UniProt P51955); experiment: Dundee profiling
# PKBa = PKBa (Homo sapiens (Human), UniProt P31749); experiment: Dundee profiling
# MST3 = MST3 (Homo sapiens (Human), UniProt Q9Y6E0); experiment: Dundee profiling
# LRRK2[G2019S] = LRRK2[G2019S] (Homo sapiens (Human), UniProt Q5S007, G2019S); experiment: LRRK2 enzyme kinase assay, G2019S; type: biochemical; settings: Table 1; ATP at Km 112 μm
# PFTK1 = PFTK1 (Homo sapiens (Human), UniProt O94921); experiment: KinomeScan; type: binding; settings: 1 uM
# SIK3 = SIK3 (Homo sapiens (Human), UniProt Q9Y2K2); experiment: Dundee profiling
# Chain of SIK3 (Q9Y2K2 whole entry, species assumed): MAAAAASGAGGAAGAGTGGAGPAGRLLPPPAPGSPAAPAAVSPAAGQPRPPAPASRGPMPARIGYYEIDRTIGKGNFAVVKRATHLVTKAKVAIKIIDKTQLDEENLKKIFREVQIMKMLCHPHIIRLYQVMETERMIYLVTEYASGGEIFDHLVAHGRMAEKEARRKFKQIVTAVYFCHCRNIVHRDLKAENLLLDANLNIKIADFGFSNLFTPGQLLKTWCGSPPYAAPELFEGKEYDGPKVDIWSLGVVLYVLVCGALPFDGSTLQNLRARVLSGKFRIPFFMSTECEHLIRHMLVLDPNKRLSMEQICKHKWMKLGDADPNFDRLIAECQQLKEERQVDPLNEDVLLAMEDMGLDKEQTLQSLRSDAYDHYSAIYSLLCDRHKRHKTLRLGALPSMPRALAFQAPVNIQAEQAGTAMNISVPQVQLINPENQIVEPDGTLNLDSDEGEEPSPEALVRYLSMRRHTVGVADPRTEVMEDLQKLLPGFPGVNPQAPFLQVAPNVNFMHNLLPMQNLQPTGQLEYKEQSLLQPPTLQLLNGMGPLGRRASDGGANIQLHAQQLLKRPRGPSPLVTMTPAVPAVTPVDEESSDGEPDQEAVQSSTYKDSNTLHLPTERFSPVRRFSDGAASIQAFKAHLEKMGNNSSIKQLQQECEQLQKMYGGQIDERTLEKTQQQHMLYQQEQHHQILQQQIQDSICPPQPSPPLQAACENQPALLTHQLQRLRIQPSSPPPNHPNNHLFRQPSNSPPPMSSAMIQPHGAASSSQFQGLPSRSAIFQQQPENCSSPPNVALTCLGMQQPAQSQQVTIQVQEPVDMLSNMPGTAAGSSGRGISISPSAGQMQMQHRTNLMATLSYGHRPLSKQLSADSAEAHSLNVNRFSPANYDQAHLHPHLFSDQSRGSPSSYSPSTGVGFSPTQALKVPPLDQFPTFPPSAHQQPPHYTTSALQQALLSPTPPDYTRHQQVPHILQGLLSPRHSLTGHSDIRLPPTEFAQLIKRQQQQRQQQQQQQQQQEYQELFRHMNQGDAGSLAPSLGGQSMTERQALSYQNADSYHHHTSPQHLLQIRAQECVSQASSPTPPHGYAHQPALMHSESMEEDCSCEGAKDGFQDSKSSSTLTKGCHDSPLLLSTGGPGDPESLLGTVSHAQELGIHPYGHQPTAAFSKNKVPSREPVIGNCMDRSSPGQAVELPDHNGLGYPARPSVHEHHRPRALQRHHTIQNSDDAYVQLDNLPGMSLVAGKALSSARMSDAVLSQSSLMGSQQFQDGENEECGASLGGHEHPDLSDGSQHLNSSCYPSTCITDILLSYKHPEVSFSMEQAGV
# ACVR2B = ACVR2B (Homo sapiens (Human), UniProt Q13705); experiment: KinomeScan; type: binding; settings: 1 uM
# EGFR (L858R, T790M) = EGFR (L858R, T790M) (Homo sapiens (Human), UniProt P00533, L858R/T790M); experiment: KinomeScan; type: binding; settings: 1 uM
# STK33 = STK33 (Homo sapiens (Human), UniProt Q9BYT3); experiment: Dundee profiling
# Chain of STK33 (Q9BYT3 whole entry, species assumed): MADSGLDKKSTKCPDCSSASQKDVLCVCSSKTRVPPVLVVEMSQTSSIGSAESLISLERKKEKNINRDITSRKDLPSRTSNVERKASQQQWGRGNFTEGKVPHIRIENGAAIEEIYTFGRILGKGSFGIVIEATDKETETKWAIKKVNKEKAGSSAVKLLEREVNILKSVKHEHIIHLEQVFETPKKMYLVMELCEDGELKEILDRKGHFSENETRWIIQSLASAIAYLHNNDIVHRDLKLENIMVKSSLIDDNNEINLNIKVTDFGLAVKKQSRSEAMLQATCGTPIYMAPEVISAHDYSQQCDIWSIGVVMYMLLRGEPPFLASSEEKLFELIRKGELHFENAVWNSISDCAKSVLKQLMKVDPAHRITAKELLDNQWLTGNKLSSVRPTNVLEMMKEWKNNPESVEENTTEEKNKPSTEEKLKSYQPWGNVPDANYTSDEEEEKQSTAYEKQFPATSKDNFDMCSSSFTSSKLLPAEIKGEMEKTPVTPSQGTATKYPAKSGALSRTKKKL
# LATS2 = LATS2 (Homo sapiens (Human), UniProt Q9NRM7); experiment: KinomeScan; type: binding; settings: 1 uM
# PIM3 = PIM3 (Homo sapiens (Human), UniProt Q86V86); experiment: Dundee profiling
# LKB1 = LKB1 (Homo sapiens (Human), UniProt Q15831); experiment: Dundee profiling
# CAMKKb = CAMKKb (Homo sapiens (Human), UniProt Q96RR4); experiment: Dundee profiling
# ABL = ABL (Homo sapiens (Human), UniProt P00519); experiment: Dundee profiling
# PAK6 = PAK6 (Homo sapiens (Human), UniProt Q9NQU5); experiment: Dundee profiling
# MARK2 = MARK2 (Homo sapiens (Human), UniProt Q7KZI7); experiment: Dundee profiling
# ROCK2 = ROCK2 (Homo sapiens (Human), UniProt O75116); experiment: Dundee profiling
# HER4 = HER4 (Homo sapiens (Human), UniProt Q15303); experiment: Dundee profiling
# SYK [2] = target: T1, SYK; experiment: Dundee profiling
# Aurora A = Aurora A (Homo sapiens (Human), UniProt O14965); experiment: Dundee profiling
# Chain of Aurora A (O14965 whole entry): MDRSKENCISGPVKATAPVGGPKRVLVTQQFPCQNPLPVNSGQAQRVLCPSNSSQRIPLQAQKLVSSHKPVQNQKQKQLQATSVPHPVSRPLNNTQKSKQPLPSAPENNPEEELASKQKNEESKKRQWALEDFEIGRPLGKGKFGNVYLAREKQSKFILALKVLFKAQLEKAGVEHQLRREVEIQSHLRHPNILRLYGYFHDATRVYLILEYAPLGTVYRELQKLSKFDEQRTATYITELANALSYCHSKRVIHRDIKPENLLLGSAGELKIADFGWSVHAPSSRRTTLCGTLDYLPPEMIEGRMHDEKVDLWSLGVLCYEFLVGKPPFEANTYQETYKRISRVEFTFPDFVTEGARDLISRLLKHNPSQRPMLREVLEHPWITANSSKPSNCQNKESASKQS
# CIT = CIT (Homo sapiens (Human), UniProt O14578); experiment: KinomeScan; type: binding; settings: 1 uM
# ULK3 = ULK3 (Homo sapiens (Human), UniProt Q6PHR2); experiment: KinomeScan; type: binding; settings: 1 uM
# MLK3 = MLK3 (Homo sapiens (Human), UniProt Q16584); experiment: Dundee profiling
# EPH-A4 = EPH-A4 (Homo sapiens (Human), UniProt P54764); experiment: Dundee profiling
# Chain of EPH-A4 (P54764 20-986, species assumed): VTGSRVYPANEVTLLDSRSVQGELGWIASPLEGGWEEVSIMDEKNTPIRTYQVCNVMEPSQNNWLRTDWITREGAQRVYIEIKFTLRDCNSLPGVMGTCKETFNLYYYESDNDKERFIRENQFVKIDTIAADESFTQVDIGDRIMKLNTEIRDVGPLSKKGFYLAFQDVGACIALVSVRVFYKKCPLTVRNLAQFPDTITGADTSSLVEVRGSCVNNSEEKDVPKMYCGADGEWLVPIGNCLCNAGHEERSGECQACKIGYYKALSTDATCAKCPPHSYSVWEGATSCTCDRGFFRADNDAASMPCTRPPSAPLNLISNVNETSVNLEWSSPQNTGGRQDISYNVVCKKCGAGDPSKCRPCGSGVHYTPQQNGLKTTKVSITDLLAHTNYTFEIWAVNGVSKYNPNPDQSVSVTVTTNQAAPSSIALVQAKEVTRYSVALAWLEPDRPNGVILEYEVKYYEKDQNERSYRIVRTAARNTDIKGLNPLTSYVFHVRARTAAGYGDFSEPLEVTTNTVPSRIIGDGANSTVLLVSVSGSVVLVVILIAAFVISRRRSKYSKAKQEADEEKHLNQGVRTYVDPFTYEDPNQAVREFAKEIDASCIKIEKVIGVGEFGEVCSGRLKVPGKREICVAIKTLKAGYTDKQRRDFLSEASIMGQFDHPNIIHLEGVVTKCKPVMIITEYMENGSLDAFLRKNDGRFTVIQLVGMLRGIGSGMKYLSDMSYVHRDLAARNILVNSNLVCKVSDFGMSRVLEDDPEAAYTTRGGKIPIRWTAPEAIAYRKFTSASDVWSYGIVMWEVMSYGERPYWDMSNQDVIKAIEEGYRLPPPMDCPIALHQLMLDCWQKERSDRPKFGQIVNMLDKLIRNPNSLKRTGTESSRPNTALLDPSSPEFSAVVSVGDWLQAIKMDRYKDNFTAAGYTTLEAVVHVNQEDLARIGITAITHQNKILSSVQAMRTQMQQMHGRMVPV
# CDK2 = CDK2 (Homo sapiens (Human), UniProt P24941); experiment: KinomeScan; type: binding; settings: 1 uM
# CHK2 = CHK2 (Homo sapiens (Human), UniProt O96017); experiment: Dundee profiling
# Chain of CHK2 (O96017 whole entry, species assumed): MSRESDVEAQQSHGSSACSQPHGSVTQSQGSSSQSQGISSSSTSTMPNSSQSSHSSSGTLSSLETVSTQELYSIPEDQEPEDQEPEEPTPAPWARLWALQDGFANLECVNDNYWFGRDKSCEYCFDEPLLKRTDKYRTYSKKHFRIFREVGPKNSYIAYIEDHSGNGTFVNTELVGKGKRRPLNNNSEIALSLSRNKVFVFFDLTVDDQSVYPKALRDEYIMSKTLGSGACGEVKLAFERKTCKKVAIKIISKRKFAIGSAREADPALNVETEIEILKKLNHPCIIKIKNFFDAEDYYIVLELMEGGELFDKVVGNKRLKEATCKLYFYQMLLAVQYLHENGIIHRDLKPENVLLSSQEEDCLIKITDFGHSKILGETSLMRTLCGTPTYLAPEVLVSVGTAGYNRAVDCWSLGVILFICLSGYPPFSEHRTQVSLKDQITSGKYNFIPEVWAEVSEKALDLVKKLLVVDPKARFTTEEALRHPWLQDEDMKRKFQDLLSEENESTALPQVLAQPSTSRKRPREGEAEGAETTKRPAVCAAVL
# CSNK1G2 = CSNK1G2 (Homo sapiens (Human), UniProt P78368); experiment: KinomeScan; type: binding; settings: 1 uM
# JNK2 = JNK2 (Homo sapiens (Human), UniProt P45984); experiment: KinomeScan; type: binding; settings: 1 uM
# RIPK2 = RIPK2 (Homo sapiens (Human), UniProt O43353); experiment: Dundee profiling
# MARK4 = MARK4 (Homo sapiens (Human), UniProt Q96L34); experiment: Dundee profiling
# BTK = BTK (Homo sapiens (Human), UniProt Q06187); experiment: Dundee profiling
# PKCa = PKCa (Homo sapiens (Human), UniProt P17252); experiment: Dundee profiling
# [3] = read-out: percent remaining enzymatic activity, I1, 1 μM
# [4] = read-out: percent remaining enzymatic activity, I10
# [5] = read-out: percent remaining enzymatic activity
# Chain of DYRK2 (Q92630 whole entry, looked up, species assumed): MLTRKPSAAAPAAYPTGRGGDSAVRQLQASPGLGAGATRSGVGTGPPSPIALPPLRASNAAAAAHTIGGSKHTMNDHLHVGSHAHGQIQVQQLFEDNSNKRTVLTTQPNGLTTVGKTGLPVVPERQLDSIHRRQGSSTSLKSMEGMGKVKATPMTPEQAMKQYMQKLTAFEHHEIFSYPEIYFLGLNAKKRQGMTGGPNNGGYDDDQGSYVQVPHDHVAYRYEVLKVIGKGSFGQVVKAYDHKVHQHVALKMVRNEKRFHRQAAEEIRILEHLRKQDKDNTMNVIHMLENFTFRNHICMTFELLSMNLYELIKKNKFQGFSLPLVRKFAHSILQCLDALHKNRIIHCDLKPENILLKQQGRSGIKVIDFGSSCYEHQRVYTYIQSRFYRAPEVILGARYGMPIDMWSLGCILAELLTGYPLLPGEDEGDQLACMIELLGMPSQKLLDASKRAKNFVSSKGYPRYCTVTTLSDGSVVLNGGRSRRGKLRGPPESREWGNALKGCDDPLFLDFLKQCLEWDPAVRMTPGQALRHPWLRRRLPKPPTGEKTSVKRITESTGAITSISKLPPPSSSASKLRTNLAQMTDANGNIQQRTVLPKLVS
# Chain of NEK2a (P51955 whole entry, species assumed): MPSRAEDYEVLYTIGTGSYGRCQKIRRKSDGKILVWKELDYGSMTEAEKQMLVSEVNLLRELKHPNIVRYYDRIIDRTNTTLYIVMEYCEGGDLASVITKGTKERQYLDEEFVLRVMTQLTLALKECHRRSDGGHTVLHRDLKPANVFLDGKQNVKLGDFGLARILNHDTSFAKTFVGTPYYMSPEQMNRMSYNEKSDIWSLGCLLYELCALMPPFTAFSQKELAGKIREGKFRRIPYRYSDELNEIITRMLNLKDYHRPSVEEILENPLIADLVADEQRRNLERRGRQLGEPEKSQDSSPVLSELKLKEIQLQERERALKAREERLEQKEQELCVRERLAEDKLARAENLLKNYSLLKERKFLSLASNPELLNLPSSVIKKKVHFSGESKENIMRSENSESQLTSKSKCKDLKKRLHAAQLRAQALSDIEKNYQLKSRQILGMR
smiles,measurement,setting,value
"CNc1nc(Nc2ccc(C(=O)N3CCOCC3)cc2OC)nc2[nH]cc(Cl)c12 [Compound 18, (4-((5-chloro-4-(methylamino)-7H-pyrrolo[2,3-d]pyrimidin-2-yl)amino)-3-methoxyphenyl)(morpholino)methanone]",KinomeScan value,SYK [1],80
same,remaining activity at 1 µM,DYRK2; [3],67%
same,remaining activity at 1 µM,DYRK2; [4],18%
same,remaining activity at 1 µM,NEK2a; [3],97%
same,remaining activity at 1 µM,NEK2a; [4],103%
same,remaining activity at 1 µM,PKBa; [3],101%
same,remaining activity at 1 µM,PKBa; [4],105%
same,percent remaining enzymatic activity,MST3; I10,95%
same,remaining activity at 1 µM,MST3; [5],102%
same,IC50,LRRK2[G2019S],2.2 nM
same,KinomeScan value,PFTK1,82
same,percent remaining enzymatic activity,SIK3; I10,96%
same,remaining activity at 1 µM,SIK3; [5],107%
same,KinomeScan value,ACVR2B,100
same,KinomeScan value,"EGFR (L858R, T790M)",100
same,remaining activity at 1 µM,STK33; [3],22%
same,remaining activity at 1 µM,STK33; [4],15%
same,KinomeScan value,LATS2,93
same,remaining activity at 1 µM,PIM3; [3],96%
same,remaining activity at 1 µM,PIM3; [4],75%
same,remaining activity at 1 µM,LKB1; [3],103%
same,remaining activity at 1 µM,LKB1; [4],96%
same,remaining activity at 1 µM,CAMKKb; [3],50%
same,remaining activity at 1 µM,CAMKKb; [4],16%
same,remaining activity at 1 µM,ABL; [3],106%
same,remaining activity at 1 µM,ABL; [4],103%
same,remaining activity at 1 µM,PAK6; [3],102%
same,remaining activity at 1 µM,PAK6; [4],105%
same,remaining activity at 1 µM,MARK2; [3],101%
same,remaining activity at 1 µM,MARK2; [4],82%
same,remaining activity at 1 µM,ROCK2; [3],113%
same,remaining activity at 1 µM,ROCK2; [4],101%
same,remaining activity at 1 µM,HER4; [3],94%
same,remaining activity at 1 µM,HER4; [4],71%
same,percent remaining enzymatic activity,SYK [2]; I10,81%
same,remaining activity at 1 µM,SYK [2]; [5],91%
same,remaining activity at 1 µM,Aurora A; [3],124%
same,remaining activity at 1 µM,Aurora A; [4],112%
same,KinomeScan value,CIT,92
same,KinomeScan value,ULK3,96
same,percent remaining enzymatic activity,MLK3; I10,35%
same,remaining activity at 1 µM,MLK3; [5],78%
same,remaining activity at 1 µM,EPH-A4; [3],107%
same,remaining activity at 1 µM,EPH-A4; [4],102%
same,KinomeScan value,CDK2,95
same,IC50,CHK2,27.6 nM
same,inhibition at 1 µM,CHK2; read-out: inhibition of kinase activity of the DMSO control,> 90%
same,remaining activity at 1 µM,CHK2; [3],5%
same,remaining activity at 1 µM,CHK2; [4],1%
same,KinomeScan value,CSNK1G2,100
same,KinomeScan value,JNK2,78
same,remaining activity at 1 µM,RIPK2; [3],102%
same,remaining activity at 1 µM,RIPK2; [4],83%
same,percent remaining enzymatic activity,MARK4; I10,98%
same,remaining activity at 1 µM,MARK4; [5],109%
same,percent remaining enzymatic activity,BTK; I10,126%
same,remaining activity at 1 µM,BTK; [5],116%
same,remaining activity at 1 µM,PKCa; [3],102%
same,remaining activity at 1 µM,PKCa; [4],100%
